Consider four molecules from patent publication US20240309342A1, “QUORUM QUENCHING ENZYME, AND METHODS OF USING SAME” (MIGAL GALILEE RESEARCH INSTITUTE LTD., priority 2021, published 2024).

This assay has as its system moLRP (marine origin Lactonase Related Protein), putative AHL lactonase of the PTE-Like-Lactonase (PLL) family from marine metagenomes, recombinant with 6×His …. The assay can be described thus: AHL lactonase activity of purified moLRP (hydrolysis of N-acyl homoserine lactones, Michaelis-Menten kinetics, pH indicator cresol purple). The assay is classed as biochemical, marine metagenome (Tara Oceans); MAG of phylum Chloroflexi. Particulars: hydrolysis of AHLs by moLRP; Table 1; FIG. 3 (C4-HSL): E0=0.4 μM, 27° C.; error = standard deviation, at least three independent measurements.

What is called Km is the substrate concentration at which the rate is half of its maximum. As usually defined, the kcat is the number of substrate molecules converted per active site and unit of time at saturation. As for `CCCC(=O)CC(=O)N[C@H]1CCOC1=O` [3-Oxo C6-HSL, N-(3-oxohexanoyl)-L-homoserine lactone], the Km is 150 ± 13 µM and the catalytic constant (kcat) stood at 1.30 ± 0.10 s⁻¹.

For the molecule `CCCCCC(=O)CC(=O)NC1CCOC1=O` (racemic) [3-Oxo C8-HSL, N-(3-oxooctanoyl)-DL-homoserine lactone], the Km turned out to be 74.8 ± 11 µM and the kcat amounted to 0.519 ± 0.02 s⁻¹.

In the case of `CCCCCCC(=O)N[C@H]1CCOC1=O` [C7-HSL, N-heptanoyl-L-homoserine lactone], the Km turned out to be 112 ± 19 µM and the kcat turned out to be 0.230 ± 0.02 s⁻¹.

With `CCCC(=O)N[C@H]1CCOC1=O` [C4-HSL, N-butyryl-L-homoserine lactone], the Km was determined as 96.5 ± 15.3 µM and the kcat was found to be 1.85 ± 0.11 s⁻¹.
